Values after ≈ are worked out from the molar mass of the structure shown.
Legend:
[1] = tested on: nitric oxide production induced by gamma interferon in PAM212 keratinocytes; details: read-out: Nitric oxide inhibition IC50, 100 U/ml gamma interferon, nitrite at 72 hours
Procedure: The assay for measurement of anti-inflammatory activity is based on the ability of the cytokine gamma interferon to induce the formation of nitric oxide synthase and subsequently of nitric oxide itself in keratinocytes.
For each assay the cells were inoculated into a 24-well tissue culture plate at 250,000 cells per well in growth medium. After 24 hours the medium was changed to phenol red and serum-free DMEM containing 100 U/ml of gamma interferon. Nitric oxide production was thereby initiated and at 72 hours post inoculation was quantified spectrophotometrically by measuring the accumulation of nitrite in the culture medium using the Greiss reagent. This was done by drawing an aliquot of the culture medium and mixing it with equal volumes of 1.0% sulfanilamide and 0.1% N-1-naphthylethylene diamine in 50% phosphoric acid. […] Compounds according to the present invention were assayed for their anti-inflammatory activity by examining their ability to suppress nitric oxide production in this assay.

[2] = tested on: E. coli; test: microbe, parasite or virus in culture; details: for Antibacterial MIC E. Coli: serial two-fold dilutions, IA = Inactive
Procedure: (§1) Compounds were tested using E. coli, G. vaginalis or S. aureus. Bacteria were grown on appropriate media containing a range of concentrations of the test compounds which were obtained by serial two-fold dilutions. Concentrations used were at least twice the MIC to at least ½ the break point for susceptibility to inhibition. MICs were determined spectrophotometrically by measuring changes in absorbance of bacterial cultures in the absence and presence of the test compounds.

[3] = tested on: G. vaginalis; test: Antibacterial MIC, G. vaginalis; assay type: cell-based, Gardnerella vaginalis; details: serial two-fold dilutions, IA = Inactive
Procedure: as §1

O=[N+]([O-])c1ccccc1C=CC=Nn1c(S)nnc1-c1cccs1 [Compound 3a, 4-[Imino-(3-(−2-nitrophenyl)-2-ethylenyl)]-3-mercapto-5-(2-thienyl)-4H-1,2,4-triazole]
IC50 [1]: 14 µM

O=[N+]([O-])c1ccc(C=CC=Nn2c(S)nnc2-c2ccco2)o1 [Compound 3c, 4-[imino-(3-(5-nitro-2-furyl)-2-ethylenyl)]-3-mercapto-5-(2-furoyl)-4H-1,2,4-triazole]
Antibacterial MIC E. Coli [2]: 16.6 µg/mL | Antibacterial MIC G. Vaginalis [3]: 16.6 µg/mL

O=[N+]([O-])c1ccc(C=Nn2c(S)nnc2-c2cccs2)o1 [Compound 3d]
Antibacterial MIC E. Coli [2]: 16.0 µg/mL | Antibacterial MIC G. Vaginalis [3]: 3.2 µg/mL

O=C1CN(/N=C/c2ccc([N+](=O)[O-])o2)C(=O)N1 [NF, Nitrofurantoin, reference compound]
MIC ([2]; Escherichia coli, read-out: Antibacterial MIC E. Coli): 1.2 µg/mL (≈ 5.04 µM) | MIC ([3]; Gardnerella vaginalis): 11.9 µg/mL (≈ 50 µM)
